{"source": "the NIST ThermoML archive (doi:10.1021/je060271a)", "conditions": "Liquid, Vibrating tube method", "note": "Numbers after ± are expanded uncertainties."}
{"compound": "CCCCCC(=O)OCC(COC(=O)CCCCC)(COC(=O)CCCCC)COC(=O)CCCCC", "note": "[pentaerythritol tetrahexanoate]", "values": [{"measurement": "mass density", "setting": "303.17 K, 1567.2 kPa", "value": "989.3 ± 1.2", "unit": "kg/m3"}, {"measurement": "mass density", "setting": "303.17 K, 1583.5 kPa", "value": "989.4 ± 1.2", "unit": "kg/m3"}, {"measurement": "mass density", "setting": "303.17 K, 1597.3 kPa", "value": "989.4 ± 1.2", "unit": "kg/m3"}, {"measurement": "mass density", "setting": "303.17 K, 1611.3 kPa", "value": "989.4 ± 1.2", "unit": "kg/m3"}, {"measurement": "mass density", "setting": "303.17 K, 1628.3 kPa", "value": "989.5 ± 1.2", "unit": "kg/m3"}, {"measurement": "mass density", "setting": "303.17 K, 5535.7 kPa", "value": "992 ± 1.2", "unit": "kg/m3"}, {"measurement": "mass density", "setting": "303.17 K, 5553.1 kPa", "value": "991.9 ± 1.2", "unit": "kg/m3"}, {"measurement": "mass density", "setting": "303.17 K, 5573.9 kPa", "value": "992 ± 1.2", "unit": "kg/m3"}, {"measurement": "mass density", "setting": "303.17 K, 17353 kPa", "value": "999.2 ± 1.2", "unit": "kg/m3"}, {"measurement": "mass density", "setting": "303.17 K, 32996 kPa", "value": "1008 ± 1.2", "unit": "kg/m3"}, {"measurement": "mass density", "setting": "303.17 K, 33019 kPa", "value": "1007.9 ± 1.2", "unit": "kg/m3"}, {"measurement": "mass density", "setting": "303.17 K, 33039 kPa", "value": "1007.9 ± 1.2", "unit": "kg/m3"}, {"measurement": "mass density", "setting": "303.17 K, 33058 kPa", "value": "1008 ± 1.2", "unit": "kg/m3"}, {"measurement": "mass density", "setting": "303.17 K, 33082 kPa", "value": "1008.1 ± 1.2", "unit": "kg/m3"}, {"measurement": "mass density", "setting": "303.17 K, 33102 kPa", "value": "1007.9 ± 1.2", "unit": "kg/m3"}, {"measurement": "mass density", "setting": "303.17 K, 33125 kPa", "value": "1008 ± 1.2", "unit": "kg/m3"}, {"measurement": "mass density", "setting": "303.17 K, 33145 kPa", "value": "1008 ± 1.2", "unit": "kg/m3"}, {"measurement": "mass density", "setting": "303.17 K, 33165 kPa", "value": "1007.9 ± 1.2", "unit": "kg/m3"}, {"measurement": "mass density", "setting": "323.14 K, 384.5 kPa", "value": "973 ± 1.2", "unit": "kg/m3"}, {"measurement": "mass density", "setting": "323.14 K, 386.4 kPa", "value": "972.9 ± 1.2", "unit": "kg/m3"}, {"measurement": "mass density", "setting": "323.14 K, 388.7 kPa", "value": "972.8 ± 1.2", "unit": "kg/m3"}, {"measurement": "mass density", "setting": "323.14 K, 391.1 kPa", "value": "972.8 ± 1.2", "unit": "kg/m3"}, {"measurement": "mass density", "setting": "323.14 K, 393.7 kPa", "value": "972.9 ± 1.2", "unit": "kg/m3"}, {"measurement": "mass density", "setting": "323.14 K, 396.7 kPa", "value": "972.9 ± 1.2", "unit": "kg/m3"}, {"measurement": "mass density", "setting": "323.14 K, 398.7 kPa", "value": "973 ± 1.2", "unit": "kg/m3"}, {"measurement": "mass density", "setting": "323.14 K, 401.3 kPa", "value": "973 ± 1.2", "unit": "kg/m3"}, {"measurement": "mass density", "setting": "323.14 K, 403.6 kPa", "value": "972.9 ± 1.2", "unit": "kg/m3"}, {"measurement": "mass density", "setting": "323.14 K, 406.6 kPa", "value": "972.9 ± 1.2", "unit": "kg/m3"}, {"measurement": "mass density", "setting": "323.14 K, 408.8 kPa", "value": "972.9 ± 1.2", "unit": "kg/m3"}, {"measurement": "mass density", "setting": "323.14 K, 411.4 kPa", "value": "973 ± 1.2", "unit": "kg/m3"}, {"measurement": "mass density", "setting": "323.14 K, 414.9 kPa", "value": "972.9 ± 1.2", "unit": "kg/m3"}, {"measurement": "mass density", "setting": "323.14 K, 417.5 kPa", "value": "972.8 ± 1.2", "unit": "kg/m3"}, {"measurement": "mass density", "setting": "323.14 K, 420.5 kPa", "value": "972.9 ± 1.2", "unit": "kg/m3"}, {"measurement": "mass density", "setting": "323.14 K, 423.2 kPa", "value": "973 ± 1.2", "unit": "kg/m3"}, {"measurement": "mass density", "setting": "323.14 K, 426 kPa", "value": "972.9 ± 1.2", "unit": "kg/m3"}, {"measurement": "mass density", "setting": "323.14 K, 429.2 kPa", "value": "972.9 ± 1.2", "unit": "kg/m3"}, {"measurement": "mass density", "setting": "323.14 K, 431.6 kPa", "value": "972.9 ± 1.2", "unit": "kg/m3"}, {"measurement": "mass density", "setting": "323.14 K, 434.7 kPa", "value": "973.1 ± 1.2", "unit": "kg/m3"}, {"measurement": "mass density", "setting": "323.14 K, 438 kPa", "value": "972.9 ± 1.2", "unit": "kg/m3"}, {"measurement": "mass density", "setting": "323.14 K, 440.8 kPa", "value": "972.9 ± 1.2", "unit": "kg/m3"}, {"measurement": "mass density", "setting": "323.14 K, 477.3 kPa", "value": "972.9 ± 1.2", "unit": "kg/m3"}, {"measurement": "mass density", "setting": "323.14 K, 481.1 kPa", "value": "973 ± 1.2", "unit": "kg/m3"}, {"measurement": "mass density", "setting": "323.14 K, 484.4 kPa", "value": "972.9 ± 1.2", "unit": "kg/m3"}, {"measurement": "mass density", "setting": "323.14 K, 488.9 kPa", "value": "972.9 ± 1.2", "unit": "kg/m3"}, {"measurement": "mass density", "setting": "323.14 K, 492.6 kPa", "value": "973 ± 1.2", "unit": "kg/m3"}, {"measurement": "mass density", "setting": "323.14 K, 495.7 kPa", "value": "973 ± 1.2", "unit": "kg/m3"}, {"measurement": "mass density", "setting": "323.14 K, 499.5 kPa", "value": "973 ± 1.2", "unit": "kg/m3"}, {"measurement": "mass density", "setting": "323.14 K, 503.9 kPa", "value": "973 ± 1.2", "unit": "kg/m3"}, {"measurement": "mass density", "setting": "323.14 K, 507.5 kPa", "value": "973.1 ± 1.2", "unit": "kg/m3"}, {"measurement": "mass density", "setting": "323.14 K, 512.4 kPa", "value": "973.1 ± 1.2", "unit": "kg/m3"}, {"measurement": "mass density", "setting": "323.14 K, 516.2 kPa", "value": "973 ± 1.2", "unit": "kg/m3"}, {"measurement": "mass density", "setting": "323.14 K, 645.8 kPa", "value": "973.2 ± 1.2", "unit": "kg/m3"}, {"measurement": "mass density", "setting": "323.14 K, 648.1 kPa", "value": "973.1 ± 1.2", "unit": "kg/m3"}, {"measurement": "mass density", "setting": "323.14 K, 650 kPa", "value": "973 ± 1.2", "unit": "kg/m3"}, {"measurement": "mass density", "setting": "323.14 K, 652.6 kPa", "value": "973.1 ± 1.2", "unit": "kg/m3"}, {"measurement": "mass density", "setting": "323.14 K, 654.5 kPa", "value": "973.1 ± 1.2", "unit": "kg/m3"}, {"measurement": "mass density", "setting": "323.14 K, 657.1 kPa", "value": "972.9 ± 1.2", "unit": "kg/m3"}, {"measurement": "mass density", "setting": "323.14 K, 686.8 kPa", "value": "973.3 ± 1.2", "unit": "kg/m3"}, {"measurement": "mass density", "setting": "323.14 K, 689.8 kPa", "value": "973 ± 1.2", "unit": "kg/m3"}, {"measurement": "mass density", "setting": "323.14 K, 692.2 kPa", "value": "973.1 ± 1.2", "unit": "kg/m3"}, {"measurement": "mass density", "setting": "323.14 K, 694.8 kPa", "value": "973.3 ± 1.2", "unit": "kg/m3"}, {"measurement": "mass density", "setting": "323.14 K, 697.1 kPa", "value": "973.2 ± 1.2", "unit": "kg/m3"}, {"measurement": "mass density", "setting": "323.14 K, 763.3 kPa", "value": "973.2 ± 1.2", "unit": "kg/m3"}, {"measurement": "mass density", "setting": "323.14 K, 801.5 kPa", "value": "973.1 ± 1.2", "unit": "kg/m3"}, {"measurement": "mass density", "setting": "323.14 K, 803.8 kPa", "value": "973.2 ± 1.2", "unit": "kg/m3"}, {"measurement": "mass density", "setting": "323.14 K, 807.1 kPa", "value": "973.2 ± 1.2", "unit": "kg/m3"}, {"measurement": "mass density", "setting": "323.14 K, 809.5 kPa", "value": "973.2 ± 1.2", "unit": "kg/m3"}, {"measurement": "mass density", "setting": "323.14 K, 812.1 kPa", "value": "973.3 ± 1.2", "unit": "kg/m3"}, {"measurement": "mass density", "setting": "323.14 K, 858.7 kPa", "value": "973.2 ± 1.2", "unit": "kg/m3"}, {"measurement": "mass density", "setting": "323.14 K, 862.3 kPa", "value": "973.3 ± 1.2", "unit": "kg/m3"}, {"measurement": "mass density", "setting": "323.14 K, 865.1 kPa", "value": "973.2 ± 1.2", "unit": "kg/m3"}, {"measurement": "mass density", "setting": "323.14 K, 867.7 kPa", "value": "973.2 ± 1.2", "unit": "kg/m3"}]}
